Here are results for one compound from patent US20250213700A1, “COMPOUNDS, COMPOSITIONS, AND METHODS FOR CELL-SPECIFIC PHARMACOLOGY” (Duke University, priority 2022, published 2025).

SMILES strings stand for the structures.

This experiment has as its system AMPAR. Briefly: acute striatal brain slice electrophysiology, AMPAR antagonism. The experiment is classed as cell-based, mouse. Here is the method:
Electrophysiology. Preparation of Brain slices: Mice (8-10 weeks) were injected AAV10 HaloTag™-dTomato to striatum or ventral tegmental area (VTA). After 3-5 weeks, mice were deeply anesthetized with isoflurane and euthanized by decapitation. Coronal brain slices ([…]) containing striatum or VTA were prepared by standard methods using a Vibratome (Leica, VT 1200S), in ice-cold high sucrose cutting solution containing (in mM) 220 sucrose, 3 KCl, 1.25 NaH2PO4, 25 NaHCO3, 12 MgSO4.7H2O, 10 glucose, and 0.2 CaCl2) bubbled with 95% O2 and 5% CO2. […]
Whole-cell patch-clamp recording: The brain slices or retinas were perfused with bubbled aCSF at 29-30° C. with a 2 ml/min flow rate. […] Series resistance was monitored using 5-10 mV hyperpolarizing step throughout the experiment, and cells were discarded if series resistance changed more than ˜15% during the experiment. […] Statistical significance was determined using Student's t or one-way or two-way ANOVA tests. eIPSCs or eEPSCs decay time constants were obtained by fitting a single-exponential function, I(t)=I exp(−t/T)+ISS, where I(t) is the amplitude of the current at time t and ISS is the steady-state current, I is instantaneous current subtracted from Iss, and t is the time constant of decay. […]

For `COc1cc(CCCCl)ccc1CCOCCNC(=O)c1ccc(CNC(=O)CCOCCOCCOCCOCCOCCOCCOCCOCCOCCOCCOCCOCCOCCOCCOCCOCCOCCOCCOCCOCCOCCOCCOCCOCCOCCOCCOCCOCCOCCOCCOCCOCCOCCOCCOCCOCCn2cc(COCCOCCOCCOCCOCCOCCNC(=O)CCCn3c(=O)c(=O)[nH]c4cc([N+](=O)[O-])c(-n5ccnc5)cc43)nn2)cc1` [YM90K.1DART.2], the “acceleration in comparison to predecessor” value is roughly 10 fold. For the same compound, under “+HTP neurons, 0.3 µM dose”, the “time to half-block of AMPAR” value worked out at 5 min.
